Data on two compounds can be found in PMC12827886 (Acta Pharmaceutica Sinica. B, 2025).

The experiment deals with Cereblon (CRBN) (Homo sapiens, UniProt Q96SW2). As to the kind of experiment: biochemical. The class given is binding.
Cereblon (CRBN), sequence (Q16531 2-1140): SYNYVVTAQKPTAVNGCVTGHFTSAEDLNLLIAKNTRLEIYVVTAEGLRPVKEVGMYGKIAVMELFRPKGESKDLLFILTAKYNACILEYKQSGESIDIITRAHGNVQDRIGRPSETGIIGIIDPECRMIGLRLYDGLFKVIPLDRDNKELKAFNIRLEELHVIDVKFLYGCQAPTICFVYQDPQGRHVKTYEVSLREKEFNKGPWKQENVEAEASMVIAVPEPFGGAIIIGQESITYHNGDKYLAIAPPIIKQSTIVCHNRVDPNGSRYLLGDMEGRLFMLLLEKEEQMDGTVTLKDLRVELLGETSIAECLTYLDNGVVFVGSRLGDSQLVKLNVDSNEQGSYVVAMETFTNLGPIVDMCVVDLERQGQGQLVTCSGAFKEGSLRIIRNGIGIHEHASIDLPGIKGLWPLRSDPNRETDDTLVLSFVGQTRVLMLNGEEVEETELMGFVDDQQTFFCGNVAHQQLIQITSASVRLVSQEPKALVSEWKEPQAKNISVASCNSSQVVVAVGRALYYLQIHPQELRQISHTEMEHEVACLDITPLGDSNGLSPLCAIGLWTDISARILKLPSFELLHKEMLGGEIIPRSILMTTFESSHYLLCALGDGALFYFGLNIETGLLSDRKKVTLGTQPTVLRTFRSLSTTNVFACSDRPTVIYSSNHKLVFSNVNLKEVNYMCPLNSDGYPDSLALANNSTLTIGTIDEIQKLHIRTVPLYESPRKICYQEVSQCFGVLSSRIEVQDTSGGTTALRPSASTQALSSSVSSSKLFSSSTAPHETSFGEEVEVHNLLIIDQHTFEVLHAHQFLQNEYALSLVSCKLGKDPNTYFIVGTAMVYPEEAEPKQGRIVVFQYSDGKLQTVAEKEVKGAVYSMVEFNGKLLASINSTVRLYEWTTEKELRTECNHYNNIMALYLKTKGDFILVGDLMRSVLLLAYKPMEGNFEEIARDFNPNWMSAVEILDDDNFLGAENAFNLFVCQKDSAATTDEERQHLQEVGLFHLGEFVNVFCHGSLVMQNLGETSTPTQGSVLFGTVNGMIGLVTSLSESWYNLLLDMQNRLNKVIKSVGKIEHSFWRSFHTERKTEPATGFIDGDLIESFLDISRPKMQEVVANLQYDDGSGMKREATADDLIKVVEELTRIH
Cereblon (CRBN), sequence (Q96SW2 whole entry): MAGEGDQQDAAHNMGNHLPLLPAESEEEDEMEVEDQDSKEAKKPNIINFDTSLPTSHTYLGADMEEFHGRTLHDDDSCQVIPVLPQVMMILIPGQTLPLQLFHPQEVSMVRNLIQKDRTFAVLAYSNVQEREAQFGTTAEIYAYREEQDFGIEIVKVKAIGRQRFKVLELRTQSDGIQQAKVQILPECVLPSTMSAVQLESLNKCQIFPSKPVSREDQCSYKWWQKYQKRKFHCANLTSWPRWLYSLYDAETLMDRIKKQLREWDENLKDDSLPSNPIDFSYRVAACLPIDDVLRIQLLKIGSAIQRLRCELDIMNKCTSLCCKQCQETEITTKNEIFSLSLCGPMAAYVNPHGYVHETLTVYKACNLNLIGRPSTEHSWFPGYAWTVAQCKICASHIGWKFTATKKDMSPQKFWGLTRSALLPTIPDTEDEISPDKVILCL

Consider `CO[C@H]1/C=C/O[C@@]2(C)Oc3c(C)c(O)c4c(c3C2=O)C(=O)C=C(NC(=O)/C(C)=C\C=C\[C@H](C)[C@H](O)[C@@H](C)[C@@H](O)[C@@H](C)[C@H](OC(C)=O)[C@@H]1C)C4=O` [Rifamycin S], for which the IC50 (usually the point on the concentration scale where inhibition reaches its midpoint) was 3.09 µM. The value for `CO[C@H]1/C=C/O[C@@]2(C)Oc3c(C)c(O)c4c(c3C2=O)C2=NC3(CCN(CC(C)C)CC3)NC2=C(NC(=O)/C(C)=C\C=C\[C@H](C)[C@H](O)[C@@H](C)[C@@H](O)[C@@H](C)[C@H](OC(C)=O)[C@@H]1C)C4=O` [Rifabutin] was 15.8 µM.
